Measurements: patent publication US10759777B2, “Carbazole-containing amides, carbamates, and ureas as cryptochrome modulators” (Synchronicity Pharma, Inc., priority 2014, dated 2020)

Assays:
[1] = test system: db/db mouse model of type II diabetes; experiment: Compound 72 administered over 7 days in db/db mice (glucose, insulin, compound levels); assay type: in vivo; conditions: 50 mg/kg PO QD 7 days
Source text: Significance was accepted when p<0.05.

[2] = test system: rat model of cortisone-induced insulin resistance; experiment: Cortisone induced insulin resistance in rats; assay type: in vivo; conditions: 50 mg/kg po with cortisone 30 mg/kg sc
Experimental: Animals were dosed with cortisone (30 mg/kg sc qd) in combination with test compounds for 6 days and then terminated 27 hours after the final dose of cortisone. A reference standard (Mifepristone) was also included. Cortisone 21-acetate (Sigma C-3130) was supplied by RenaSci and administered using a dose volume of 5 ml/kg via the subcutaneous route as a fine suspension in 1% methylcellulose. […] Mifepristone (Sigma M8046) was provided by RenaSci.
Glucose and insulin determinations were performed on plasma samples obtained from a tail vein bleed taken after a 12 h fast, approximately 27 h after the last cortisone dose. Animals were then terminated and a terminal (cardiac) blood sample taken from which plasma was prepared.
Thirty four male Sprague Dawley rats (weight range 200-250 g) were ordered from Charles River, Margate, Kent, UK. […] Subsequently, animals underwent a 3 day baseline period during which they were dosed once daily with vehicle at t=0 h (07:00). […] Body weight was recorded immediately before dosing began at 07:00 (t=0 h).
On Day 6 of dosing rats were fasted for 12 h beginning at 22:30 (timed to coincide with the Day 7 termination). […] At 10:30 on Day 7, 27 h after the final dose of cortisone, a blood sample (300 μl) was taken from the lateral tail vein into tubes containing EDTA (Sarstedt 16.444). The blood was centrifuged and resultant plasma aliquot stored at −75° C. The animals were euthanized by CO2 asphyxiation followed by cervical dislocation. Terminal blood (approximately 10 ml) was collected by cardiac puncture into tubes containing EDTA (Sarstedt 5 ml 32.332) and then centrifuged and plasma stored at −75° C. The tail vein plasma was analyzed for glucose (n=2) using a commercial clinical reagent (Thermoelectron Infinity glucose reagent (TR15421) and for insulin (n=1) using the Mercodia ultrasensitive rat insulin rat ELISA (10-1251-10).
Plasma glucose and insulin were analyzed by robust regression or general linear model with treatment as a factor and bleeding order and baseline body weight as covariates. A log transformation was used if appropriate. Appropriate multiple comparison tests (two-tailed) were used to determine significant differences from the vehicle group and from the Cortisone group. P<0.05 was considered to be statistically significant.

O=C1NCCN1CC(O)Cn1c2ccc(F)cc2c2cc(F)ccc21 (centres unmarked) [Compound 72, 1-(3-(3,6-difluoro-9H-carbazol-9-yl)-2-hydroxypropyl)imidazolidin-2-one]
OGTT glucose course ([1]; db/db mice): lower than the vehicle control group
reduction of HOMA-IR ([1]; vs vehicle): 33%
reduction of insulin at t=0 ([1]; vs vehicle): 20%
reduction of insulin at t=2 hr ([1]; vs vehicle): 21%
fasted plasma insulin [2]: 5.24 ± 1.11 ng/mL
